The subject of series [1] is CD4+ cells of MG patients. Kind of series: Response of CD4+ T cells of MG patients to synthetic human AChR peptides. Type of series: cell-based. The conditions noted are these: irrespective of HLA class II type. The text has this:
Several studies have identified sequences of the human AChR α subunit recognized by T cells in MG patients. To determine whether the CD4^+ cells recognizing those immunodominant and/or universal epitope sequences can drive the synthesis of pathogenic anti-AChR antibodies, and how the ability of the different sequence regions of the AChR to interact with different HLA DR molecules correlates with the presence of universal CD4^+ epitopes, synthetic peptides based on the amino acid sequence of the human α subunit of AChR (Noda et al., Nature, 305, 818 (1983); Schoepfer et al., FEBS Lett., 226, 235 (1981)) were prepared. The peptides were approximately 20 residues long, a length that compares with that of naturally processed class II-restricted epitopes, which are 9-14 residues. […] The peptides overlapped by 5-10 residues to reduce the risk of missing epitopes “broken” between peptides.
The response to individual overlapping synthetic AChR peptides spanning the sequence of each AChR subunit, of unselected blood […], and of CD4^+ T cell lines enriched with AChR-specific cells by culture in vitro with ACHR antigens, was tested. The use of those two cell populations has different advantages and limitations. AChR-specific CD4+ lines have strong, consistent responses to individual peptides that allow a clear-cut assessment of their epitope repertoire. However, they may have an epitope repertoire different from that of the original CD4^+ population due to biased clonal propagation in vitro. Also, denatured forms of the antigen such as synthetic and biosynthetic peptides, which are commonly used for propagation of CD4+ cells specific for rare antigens, may be processed into peptide epitopes different from those obtained from processing of the native antigen in vivo and may expand […] irrelevant for the immune process in vivo. […]

The nature of series [2]: Distribution in the respiratory tract of solutions administered nasally. Type of series: in vivo, mouse. Conditions: 25 μl of 4% solution into nostrils, 10-15 minutes. Here is the method: Distribution in the Respiratory Tract of Solutions Administered Nasally. To determine which parts of the mouse respiratory system came in contact with solutions given nasally, a solution of ethidium bromide was employed. Ethidium bromide is absorbed through the mucosal lining of the respiratory tract and fluoresces brightly under U.V. light. Two mice were anesthetized and 25 μl of a 4% ethidium bromide solution in PBS was instilled into the nostrils. Ten-fifteen minutes later the animals were sacrificed by cervical dislocation. Their nasal cavities, larynx, trachea, bronchi and lungs were dissected, washed in PBS and examined under U.V. light for ethidium bromide staining.

Series [3] relates to EMG in B6 mice immunized with TAChR. Kind of series: Subcutaneous tolerization, prevention protocol, EMG symptoms (Example IV). Type of series: in vivo, mouse. The conditions noted are these: s.c. 10 μg/injection. Here is the method: (§1) B6 mice (Jackson Laboratory, Bar Harbor, Me.) were injected s.c. with 100 μl of PBS containing increasing amounts of a pool of the same amount in weight of each of the three epitope peptides Tα150-169, Tα180-200 and Tα360-378 (‘peptide pool’), or 200 μg of Tα150-169 alone, or 100 μl of PBS containing 0.1% Triton X-100 and 10 μg of solubilized TAChR. Two different treatment schedules were used, referred to as prevention and post-priming protocols. In the prevention protocol, the peptides or solubilized TAChR were administered twice per week for 14 weeks, starting 2 weeks before the beginning of the immunization with TAChR. In the post-priming protocol, peptides or solubilized TAChR were administered twice per week for […], starting 8 weeks after the beginning of the TAChR immunization. Control mice received 100 μl of peptide-free PBS, following the same schedules.
(§2) Immunization 8-10 week old mice were immunized by s.c. injections, along the back and at the base of the tail, of TAChR (a total of 50 μg in 100 μl of PBS for each immunization) emulsified in an equal volume of CFA for the first injection, and IFA for the following two boosts. The mice were injected for a total of three times at 3-4 week intervals. At the end of the observation period, the mice received a third boost, and were sacrificed 5-7 days later. Control mice were injected with clean PBS in the appropriate adjuvant.
(§3) Evaluation of the symptoms of EMG The EMG symptoms were quantified using a forced exercise test sensitized by i.p. injection of a minute amount of pancuronium bromide (0.03 mg/kg) just before the test (Karachunski et al., 1995). The mouse hangs from a grid suspended above a soft padding, and the time it takes the mouse to fall three times (‘holding time’) was measured. The test is parametric, and gives a quantitative assessment of the mouse weakness. The myasthenic nature of the weakness was verified by injecting i.p. edrophonium chloride (Reversol, Organon, West Orange, N.J.), which is a cholinesterase inhibitor. […] The mice were tested without knowledge of their treatment.
The holding time of normal mice was 10.4±2.1 minutes (n=99). Mice with holding times of 8 minutes or longer were considered normal. Mice with holding times less than 6.2 minutes (the holding time of normal mice minus two SD) were considered to have fully developed EMG. Holding times of 6.2-8 minutes were considered to potentially indicate initial EMG. Normal or sham-immunized mice had occasionally holding times of 6.2-8 minutes, but never less than 6.2 minutes. Paralyzed mice and mice that died of respiratory paralysis are indicated as having holding time of 0 minutes.

The test system of a further series is serum anti-TAChR Ab. Kind of series: Anti-TAChR IgG and IgG1 radioimmunoprecipitation assay (Example IV). Conditions: s.c. tolerization, prevention protocol. It is filed as in vivo, mouse. As to the method:
Anti-TAChR Ab assay. Sera was obtained from each mouse after each clinical testing and at the end of the observation period (12 weeks after beginning of the TAChR immunization). The serum concentration of anti-TAChR IgG and IgGI was determined by radioimmunoprecipitation assay, using TAChR solubilized in Triton X-100 and labeled by the binding of ^125I-α-BTX (Bellone et al., 1991a). As a secondary Ab, either rabbit anti-mouse IgG produced, or goat anti-mouse IgG1 (Sigma, St. Louis, Mo.), was used. The anti-TAChR Ab concentration is expressed as μM precipitated ^125I-α-BTX binding sites.
Two types of experiments were carried out. In one of them the total anti-TAChR Ab in the sera of individual mice, obtained 8, 10 and 12 weeks after the first TAChR immunization, was determined. In the other, the anti-TAChR IgG1 concentration was determined, as well as the total anti-TAChR IgG concentration, in sera obtained at the end of the observation period. For this second assay pooled sera from five mice that had received identical treatments was used.

Series [4] deals with established EMG in B6 mice. Kind of series: Subcutaneous treatment, post-priming protocol, established EMG (Example IV). Type of series: in vivo, mouse. Here is the method:
as §1, §2
as §3, with “treatment. […]” for “treatment.”

Here are results for 5 compounds from patent US6759385B1, “Methods to treat undesirable immune responses” (Regents of the University of Minnesota, priority 1997, dated 2004).

As for “α101-137: human AChR α subunit sequence region covered by peptides α101-120 and α118-137 (AIVKFTKVLLQYTGHITWTPPAIFKSYCEIIVTHFPF; UniProt P02708 121-157, looked up, fragment)”, in series [1], the “recognition by CD4+ cells of MG patients” value is listed as “recognized by the majority of the patients”.

Consider `CC[n+]1c(-c2ccccc2)c2cc(N)ccc2c2ccc(N)cc21` [ethidium bromide], for which, in series [2], the staining of bronchi result was “increasingly weaker”; the “staining of lung parenchyma” value is “only weak focal signals”; the “staining of nostrils, larynx and trachea” value is reported as “brightly stained”.

Take “α403-437: carboxyl-terminal human AChR α subunit sequence covered by peptides α403-421 and α419-437 (AMVMDHILLGVFMLVCIIGTLAVFAGRLIELNQQG; UniProt P02708 423-457, looked up, fragment)”: the “recognition by CD4+ cells of MG patients” value in series [1] is recorded as “recognized by the majority of the patients”.

Regarding “solubilized TAChR: Torpedo californica acetylcholine receptor purified from electric organ, solubilized in Triton X-100”, in series [3], the “protection from EMG” value is recorded as “protected from EMG to levels comparable”. Besides, in series [3] (at 12 weeks), the “mice with clear EMG weakness” value is reported as “one of 12” and the “mice with holding times of 6.2-8 minutes” value is listed as “two mice”. Further, the “effect on anti-TAChR Ab synthesis” value with serum anti-TAChR Ab was “delayed but did not ultimately affect”. For the same compound, the “mice with holding times of 6.2 or less” value in series [4] (at 44 weeks, s.c. post-priming protocol) is recorded as 80%. In addition, in series [4] (s.c. without adjuvant, post-priming protocol), the “EMG frequency after the s.c. treatment had started” value is reported as “very high EMG frequency”.

Regarding “peptide α304-322: synthetic sequence of the human AChR α subunit, universal epitope (STHVMPNWVRKVFIDTIPN; UniProt P02708 324-342, looked up, fragment)”, in series [1], the “recognition by CD4+ cells of MG patients” value is “recognized by the majority of the patients”.
